Source: patent US9738634B2, “Heterocyclic amide compound and herbicide” (SYNGENTA PARTICIPATIONS AG, priority 2013, dated 2017)

Columns and labels:
Assay type in all cases: in vivo
[1] = system: barnyard grass; assay: Test Example 1: weedkilling efficacy, preemergent weed treatment in the submerged state; A: barnyard grass; settings: treatment dosage 252 g/ha
In short: (§1)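 Emulsion diluted with water to the specified per-hectare dosage is applied onto flood water (4 cm) over alluvial soil on the sowing day, with barnyard grass, bulrush and pondweed seeded and rice (2.5-leaf) transplanted; plants grow at 25–30 °C and are rated at 3 weeks.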

[2] = system: bulrush; assay: Test Example 1: weedkilling efficacy, preemergent weed treatment in the submerged state; B: bulrush; settings: treatment dosage 252 g/ha
In short: as §1

[3] = system: oval-leafed pondweed; assay: Test Example 1: weedkilling efficacy, preemergent weed treatment in the submerged state; C: oval-leafed pondweed; settings: treatment dosage 252 g/ha
In short: as §1

[4] = system: transplanted rice; assay: Test Example 1: preemergent weed treatment in the submerged state, effect on crop; a: transplanted rice; settings: treatment dosage 252 g/ha
In short: as §1

[5] = system: barnyard grass; assay: Test Example 2: weedkilling efficacy, growth period weed treatment in the submerged state; A: barnyard grass; settings: treatment dosage 252 g/ha
In short: (§2)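 First, alluvial soil in pots is flooded to 4 cm and mixed seed is sown. Next, plants grow in a greenhouse at 25 to 30° C until the 1-2 leaf stage. Then diluted emulsion is applied onto the water surface at the given g/ha rate, and injury is assessed after 3 weeks.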

[6] = system: bulrush; assay: Test Example 2: weedkilling efficacy, growth period weed treatment in the submerged state; B: bulrush; settings: treatment dosage 252 g/ha
In short: as §2

[7] = system: oval-leafed pondweed; assay: Test Example 2: weedkilling efficacy, growth period weed treatment in the submerged state; C: oval-leafed pondweed; settings: treatment dosage 252 g/ha
In short: as §2

[8] = system: crabgrass; assay: Test Example 3: weedkilling efficacy through soil treatment; D: crabgrass; settings: treatment dosage 315 g/ha
In short: (§3)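 Crop and weed responses were judged three weeks after a uniform surface spray of the water-diluted emulsion at the given g/ha rate. Seeds sat beneath about 1.5 cm of sterilized diluvial soil, and boxes stood in a greenhouse at 25 to 30° C.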

[9] = system: green foxtail; assay: Test Example 3: weedkilling efficacy through soil treatment; E: green foxtail; settings: treatment dosage 315 g/ha
In short: as §3

[10] = system: wild oat; assay: Test Example 3: weedkilling efficacy through soil treatment; G: wild oat; settings: treatment dosage 315 g/ha
In short: as §3

[11] = system: black-grass; assay: Test Example 3: weedkilling efficacy through soil treatment; H: black-grass; settings: treatment dosage 315 g/ha
In short: as §3

[12] = system: Italian ryegrass; assay: Test Example 3: weedkilling efficacy through soil treatment; I: Italian ryegrass; settings: treatment dosage 315 g/ha
In short: as §3

[13] = system: Indian mallow; assay: Test Example 3: weedkilling efficacy through soil treatment; K: Indian mallow; settings: treatment dosage 315 g/ha
In short: as §3

[14] = system: redroot pigweed; assay: Test Example 3: weedkilling efficacy through soil treatment; L: redroot pigweed; settings: treatment dosage 315 g/ha
In short: as §3

[15] = system: fig-leafed goosefoot; assay: Test Example 3: weedkilling efficacy through soil treatment; M: fig-leafed goosefoot; settings: treatment dosage 315 g/ha
In short: as §3

[16] = system: chickweed; assay: Test Example 3: weedkilling efficacy through soil treatment; N: chickweed; settings: treatment dosage 315 g/ha
In short: as §3

[17] = system: birds-eye speedwell; assay: Test Example 3: weedkilling efficacy through soil treatment; p: birds-eye speedwell; settings: treatment dosage 315 g/ha
In short: as §3

[18] = system: directly sown rice; assay: Test Example 3: soil treatment, effect on crop; b: directly sown rice; settings: treatment dosage 315 g/ha
In short: as §3

[19] = system: corn; assay: Test Example 3: soil treatment, effect on crop; c: corn; settings: treatment dosage 315 g/ha
In short: as §3

[20] = system: soybean; assay: Test Example 3: soil treatment, effect on crop; d: soybean; settings: treatment dosage 315 g/ha
In short: as §3

[21] = system: wheat; assay: Test Example 3: soil treatment, effect on crop; e: wheat; settings: treatment dosage 315 g/ha
In short: as §3

[22] = system: beet; assay: Test Example 3: soil treatment, effect on crop; f: beet; settings: treatment dosage 315 g/ha
In short: as §3

[23] = system: crabgrass; assay: Test Example 4: weedkilling efficacy by foliar treatment; D: crabgrass; settings: treatment dosage 315 g/ha
In short: (§4)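 Seeds are spot-sown into sterilized diluvial soil and covered with about 1.5 cm of soil. After 14 days' greenhouse growth at 25 to 30° C, plants are sprayed on stems and leaves with diluted emulsion at the stated g/ha rate, then scored at 3 weeks.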

[24] = system: green foxtail; assay: Test Example 4: weedkilling efficacy by foliar treatment; E: green foxtail; settings: treatment dosage 315 g/ha
In short: as §4

[25] = system: black-grass; assay: Test Example 4: weedkilling efficacy by foliar treatment; H: black-grass; settings: treatment dosage 315 g/ha
In short: as §4

[26] = system: Italian ryegrass; assay: Test Example 4: weedkilling efficacy by foliar treatment; I: Italian ryegrass; settings: treatment dosage 315 g/ha
In short: as §4

[27] = system: Indian mallow; assay: Test Example 4: weedkilling efficacy by foliar treatment; K: Indian mallow; settings: treatment dosage 315 g/ha
In short: as §4

[28] = system: redroot pigweed; assay: Test Example 4: weedkilling efficacy by foliar treatment; L: redroot pigweed; settings: treatment dosage 315 g/ha
In short: as §4

[29] = system: fig-leafed goosefoot; assay: Test Example 4: weedkilling efficacy by foliar treatment; M: fig-leafed goosefoot; settings: treatment dosage 315 g/ha
In short: as §4

[30] = system: chickweed; assay: Test Example 4: weedkilling efficacy by foliar treatment; N: chickweed; settings: treatment dosage 315 g/ha
In short: as §4

[31] = system: catchweed; assay: Test Example 4: weedkilling efficacy by foliar treatment; O: catchweed; settings: treatment dosage 315 g/ha
In short: as §4

[32] = system: birds-eye speedwell; assay: Test Example 4: weedkilling efficacy by foliar treatment; p: birds-eye speedwell; settings: treatment dosage 315 g/ha
In short: as §4

[33] = system: directly sown rice; assay: Test Example 4: foliar treatment, effect on crop; b: directly sown rice; settings: treatment dosage 315 g/ha
In short: as §4

[34] = system: corn; assay: Test Example 4: foliar treatment, effect on crop; c: corn; settings: treatment dosage 315 g/ha
In short: as §4

[35] = system: soybean; assay: Test Example 4: foliar treatment, effect on crop; d: soybean; settings: treatment dosage 315 g/ha
In short: as §4

[36] = system: wheat; assay: Test Example 4: foliar treatment, effect on crop; e: wheat; settings: treatment dosage 315 g/ha
In short: as §4

[37] = system: beet; assay: Test Example 4: foliar treatment, effect on crop; f: beet; settings: treatment dosage 315 g/ha
In short: as §4

`COc1nsc(NC(=O)C(C)(C)N2COC(C)=C(c3ccsc3)C2=O)n1` [B-1-04] was tested, and the “A (barnyard grass) weedkilling efficacy grade” value [1] was 5 (weed kill ratio 90% or more, (practically complete withering)), the “B (bulrush) weedkilling efficacy grade” value [2] was 5 (weed kill ratio 90% or more, (practically complete withering)) and the “C (oval-leafed pondweed) weedkilling efficacy grade” value [3] was 5 (weed kill ratio 90% or more, (practically complete withering)). The “a (transplanted rice) effect on crop grade” value [4] was 0 (weed kill ratio 5% or less (practically no effect)), the “A (barnyard grass) weedkilling efficacy grade” value [5] was 5 (weed kill ratio 90% or more, (practically complete withering)) and the “B (bulrush) weedkilling efficacy grade” value [6] was 5 (weed kill ratio 90% or more, (practically complete withering)). For the same compound, the “C (oval-leafed pondweed) weedkilling efficacy grade” value [7] was 5 (weed kill ratio 90% or more, (practically complete withering)), the “D (crabgrass) weedkilling efficacy grade” value [8] was 5 (weed kill ratio 90% or more, (practically complete withering)) and the “E (green foxtail) weedkilling efficacy grade” value [9] was 5 (weed kill ratio 90% or more, (practically complete withering)). For the same compound, the “G (wild oat) weedkilling efficacy grade” value [10] was 4 (weed kill ratio 70% or more, less than 90%), the “H (black-grass) weedkilling efficacy grade” value [11] was 5 (weed kill ratio 90% or more, (practically complete withering)) and the “I (Italian ryegrass) weedkilling efficacy grade” value [12] was 5 (weed kill ratio 90% or more, (practically complete withering)). The “K (Indian mallow) weedkilling efficacy grade” value [13] was 3 (weed kill ratio 40% or more, less than 70%), the “L (redroot pigweed) weedkilling efficacy grade” value [14] was 4 (weed kill ratio 70% or more, less than 90%) and the “M (fig-leafed goosefoot) weedkilling efficacy grade” value [15] was 5 (weed kill ratio 90% or more, (practically complete withering)). The “N (chickweed) weedkilling efficacy grade” value [16] was 4 (weed kill ratio 70% or more, less than 90%), the “P (birds-eye speedwell) weedkilling efficacy grade” value [17] was 5 (weed kill ratio 90% or more, (practically complete withering)) and the “b (directly sown rice) effect on crop grade” value [18] was 4 (weed kill ratio 70% or more, less than 90%). The “c (corn) effect on crop grade” value [19] was 0 (weed kill ratio 5% or less (practically no effect)), the “d (soybean) effect on crop grade” value [20] was 0 (weed kill ratio 5% or less (practically no effect)) and the “e (wheat) effect on crop grade” value [21] was 0 (weed kill ratio 5% or less (practically no effect)). The “f (beet) effect on crop grade” value [22] was 4 (weed kill ratio 70% or more, less than 90%), the “D (crabgrass) weedkilling efficacy grade” value [23] was 4 (weed kill ratio 70% or more, less than 90%) and the “E (green foxtail) weedkilling efficacy grade” value [24] was 4 (weed kill ratio 70% or more, less than 90%). The “H (black-grass) weedkilling efficacy grade” value [25] was 5 (weed kill ratio 90% or more, (practically complete withering)), the “I (Italian ryegrass) weedkilling efficacy grade” value [26] was 5 (weed kill ratio 90% or more, (practically complete withering)) and the “K (Indian mallow) weedkilling efficacy grade” value [27] was 4 (weed kill ratio 70% or more, less than 90%). For the same compound, the “L (redroot pigweed) weedkilling efficacy grade” value [28] was 4 (weed kill ratio 70% or more, less than 90%), the “M (fig-leafed goosefoot) weedkilling efficacy grade” value [29] was 5 (weed kill ratio 90% or more, (practically complete withering)) and the “N (chickweed) weedkilling efficacy grade” value [30] was 3 (weed kill ratio 40% or more, less than 70%). For the same compound, the “O (catchweed) weedkilling efficacy grade” value [31] was 4 (weed kill ratio 70% or more, less than 90%), the “P (birds-eye speedwell) weedkilling efficacy grade” value [32] was 3 (weed kill ratio 40% or more, less than 70%) and the “b (directly sown rice) effect on crop grade” value [33] was 4 (weed kill ratio 70% or more, less than 90%). The “c (corn) effect on crop grade” value [34] was 3 (weed kill ratio 40% or more, less than 70%), the “d (soybean) effect on crop grade” value [35] was 0 (weed kill ratio 5% or less (practically no effect)) and the “e (wheat) effect on crop grade” value [36] was 0 (weed kill ratio 5% or less (practically no effect)). The “f (beet) effect on crop grade” value [37] was 5 (weed kill ratio 90% or more, (practically complete withering)).
